Assay results as given in patent US6528525B1, “Amidocarboxylic acid derivatives” (Sankyo Company, Limited, priority 1998, dated 2003).

Tested on: hyperglycemic male KK mice
Assay: Action in depressing blood glucose (Method 1)
Type: in vivo
Settings: Mus musculus, po, 72 h, compound admixed with powder feed at 0.01% (ca. 10 mg/kg/day) for three days, plasma glucose vs control group, read-out: Rate of hypoglycemic activity (%) (blood glucose depression rate)
Procedure: Action in Depressing Blood Glucose (Method 1)
Each compound, admixed with powder feed F-2 (Funabashi Farm) was administered to hyperglycemic male KK mice each having a body weight of 40 g or more at a rate of 0.01% (ca. 10 mg/kg/day) for three days. Meanwhile, mice of a control group were fed with the powder feed only. Then, a blood sample was collected from the caudal vein of each mouse under no anesthesia and centrifuged. The blood glucose in the plasma thus obtained was determined using Glucoloader F (Product of A & T Co., Ltd.).
The blood glucose depression rate were estimated from the following equation:
Blood glucose depression rate (%)=[(Blood glucose in Control group−Blood glucose in administered group)/Blood glucose in Control group]×100

| Structure (SMILES) | inhibition in vivo at 10 mg/kg/day [%] |
| --- | --- |
| O=C(NCCOc1ccc(CC(Oc2ccc(F)cc2)C(=O)O)cc1)c1ccc(-c2ccccn2)cc1 (centres unmarked) [Example 119, 2-(4-Fluorophenoxy)-3-[4-[2-(4-pyridine-2-ylbenzoylamino)ethoxy]phenyl]propionic acid] | 49 |
| O=C(NCCOc1ccc(CC(Oc2ccc(Cl)cc2)C(=O)O)cc1)c1ccc(-c2ccccn2)cc1 (centres unmarked) [Example 121, 2-(4-Chlorophenoxy)-3-[4-[2-(4-pyridine-2-ylbenzoylamino)ethoxy]phenyl]propionic acid] | 60 |
| O=C(NCCOc1ccc(CC(Oc2ccc(C(F)(F)F)cc2)C(=O)O)cc1)c1ccc(-c2ccccn2)cc1 (centres unmarked) [Example 123, 3-[4-[2-(4-Pyridine-2-ylbenzoylamino)ethoxy]phenyl]-2-(4-trifluoromethylphenoxy)propionic acid] | 43 |
| COc1ccc(OC(Cc2ccc(OCCNC(=O)c3ccc(-c4ccccn4)cc3)cc2)C(=O)O)cc1 (centres unmarked) [Example 125, 2-(4-Methoxyphenoxy)-3-[4-[2-(4-pyridine-2-ylbenzoylamino)ethoxy]phenyl]propionic acid] | 54 |
| O=C(NCCOc1ccc(CC(Oc2ccc(OC(F)(F)F)cc2)C(=O)O)cc1)c1ccc(-c2ccccn2)cc1 (centres unmarked) [Example 127, 3-[4-[2-(4-Pyridine-2-ylbenzoylamino)ethoxy]phenyl]-2-(4-trifluoromethoxyphenoxy)propionic acid] | 56 |
| O=C(NCCOc1ccc(CC(Oc2cccc(F)c2)C(=O)O)cc1)c1ccc(-c2ccccn2)cc1 (centres unmarked) [Example 137, 2-(3-Fluorophenoxy)-3-[4-[2-(4-pyridine-2-ylbenzoylamino)ethoxy]phenyl]propionic acid] | 49 |
| O=C(NCCOc1ccc(CC(Oc2cc(F)cc(F)c2)C(=O)O)cc1)c1ccc(-c2ccccn2)cc1 (centres unmarked) [Example 139, 2-(3,5-Difluorophenoxy)-3-[4-[2-(4-pyridine-2-ylbenzoylamino)ethoxy]phenyl]propionic acid] | 23 |
| O=C(NCCOc1ccc(CC(Oc2ccc(F)c(F)c2)C(=O)O)cc1)c1ccc(-c2ccccn2)cc1 (centres unmarked) [Example 141, 2-(3,4-Difluorophenoxy)-3-[4-[2-(4-pyridine-2-ylbenzoylamino)ethoxy]phenyl]propionic acid] | 27 |
| O=C(NCCOc1ccc(CC(Oc2cc(F)c(F)c(F)c2)C(=O)O)cc1)c1ccc(-c2ccccn2)cc1 (centres unmarked) [Example 143, 2-(3,4,5-Trifluorophenoxy)-3-[4-[2-(4-pyridine-2-ylbenzoylamino)ethoxy]phenyl]propionic acid] | 43 |
| COC(=O)C(Cc1ccc(OCCNC(=O)c2ccc(-c3ccccn3)cc2)cc1)Sc1ccccc1 (centres unmarked) [Example 152, Methyl 2-phenylthio-3-[4-[2-(4-pyridine-2-ylbenzoylamino)ethoxy]phenyl]propionate] | 58 |

Same assay, conditions: compound admixed with powder feed at 0.01% (ca. 10 mg/kg/day) for three days, plasma glucose vs control group

| Structure (SMILES) | Rate of hypoglycemic activity (%) (blood glucose depression rate) |
| --- | --- |
| O=C(NCCOc1ccc(CC(Oc2c(F)c(F)c(F)c(F)c2F)C(=O)O)cc1)c1ccc(-c2ccccn2)cc1 (centres unmarked) [Example 145, 2-Pentafluorophenoxy-3-[4-[2-(4-pyridine-2-ylbenzoylamino)ethoxy]phenyl]propionic acid] | 28 |
